pIC50: −log10 of the molar value.

Data on five compounds can be found in US10906888B2, “Pyrimidine carboxamides as inhibitors of Vanin-1 enzyme” (Pfizer Inc., priority 2016, dated 2021).

For assay [1], the target named is human vanin-1 present in human plasma (Homo sapiens (Human), UniProt O95497). Description: Vanin-1 in Human Plasma Assay. The assay is classed as biochemical. The conditions noted are these: 50% pooled human plasma, 50 uM substrate. The protocol:
Vanin-1 in Human Plasma Assay.
The in vitro assay measures enzymatic cleavage of the fluorescently-labeled vanin substrate, pantetheine 7-amino-4-trifluoromethylcoumarin, by human vanin-1 present in human plasma.
Human plasma was prepared from whole blood drawn from healthy donors, collected in tubes containing sodium heparin. The plasma fractions were separated from the whole blood by centrifugation for 10 minutes at 2000×g and pooled.
The test inhibitors were solubilized in DMSO to a stock concentration of 30 mM. On the day of the assay, dose response plates were prepared by diluting the inhibitors in DMSO to a compound concentration 200-fold the final in-assay concentration. Concentration series were prepared by serially diluting in 100% DMSO in a three-fold series. […] From this intermediate compound plate, 10 μL were transferred to the assay plate and mixed with 20 uL of the pooled human plasma. The inhibitor and enzyme were co-incubated at room temperature for 30 minutes. The enzyme reaction was initiated by the addition of 10 μL of 200 uM pantetheine 7-amino-4-trifluoromethylcoumarin prepared in assay buffer. The final concentrations in the assay were 50% plasma, and 50 uM substrate. The final concentration of DMSO was 0.5%. Datapoints were measured over time using a Tecan Safire 2 platereader at 405 nm excitation wavelength and a 510 nm emission wavelength for detection.

The target of assay [2] is human vanin-1 (Homo sapiens (Human), UniProt O95497). Description: Human Vanin-1 Enzyme Assay 1. The class given is biochemical. The note with it: 25 pM human vanin-1, 50 uM pantetheine 7-amino-4-trifluoromethylcoumarin substrate.
Chain of human vanin-1 (O95497 22-491): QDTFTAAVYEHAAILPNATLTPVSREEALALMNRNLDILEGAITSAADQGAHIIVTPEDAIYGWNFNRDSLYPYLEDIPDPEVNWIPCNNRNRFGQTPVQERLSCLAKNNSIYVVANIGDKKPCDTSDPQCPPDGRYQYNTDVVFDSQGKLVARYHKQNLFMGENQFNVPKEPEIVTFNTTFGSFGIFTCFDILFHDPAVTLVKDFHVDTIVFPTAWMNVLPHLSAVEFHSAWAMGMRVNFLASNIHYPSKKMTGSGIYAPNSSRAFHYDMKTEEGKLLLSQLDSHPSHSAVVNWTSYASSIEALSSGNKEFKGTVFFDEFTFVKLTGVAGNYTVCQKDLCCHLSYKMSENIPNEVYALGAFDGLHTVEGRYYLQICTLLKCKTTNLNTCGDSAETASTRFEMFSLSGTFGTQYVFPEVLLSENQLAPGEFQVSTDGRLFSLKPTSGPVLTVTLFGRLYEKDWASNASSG

Chain of human vanin-1 present in human plasma (O95497 22-491): as above

Consider `CC(C)(Nc1ncc(C(=O)N2CCC3(CCOCC3)C2)cn1)c1cnccn1` [Example 182, 8-oxa-2-azaspiro[4.5]dec-2-yl(2-{[2-(pyrazin-2-yl)propan-2-yl]amino}pyrimidin-5-yl)methanone], for which the figures for the pIC50 in assay [1] and in assay [2] were 8.96 and 10.21, respectively.
Take `CC(Nc1ncc(C(=O)N2CC3(CCOCC3)C2)cn1)c1cncnc1` (stereo not shown) [Example 184]: the pIC50 in assay [1] is 8.66; in assay [2], 8.84.
As to `O=C(c1cnc(NCc2cncnc2)nc1)N1CC2(CCOCC2)C1` [Example 186], the pIC50 in assay [1] is 8.33; in assay [2] it was 8.26.
In the same order, the values of `O=C(c1cnc(NC2(c3cncnc3)CC2)nc1)N1CCC2(CCOCC2)C1` [Example 188, 8-oxa-2-azaspiro[4.5]dec-2-yl(2-{[1-(pyrimidin-5-yl)cyclopropyl]amino}pyrimidin-5-yl)methanone] are 8.93 and 9.56.
For `O=C(c1cnc(NC2(c3cncnc3)CC2)nc1)N1CCCCC1` [Example 190], in that order: 7.91 and 7.90.
